Values joined by “and” are separate entries in the source; they are usually repeats but may differ in a detail not shown here. Identical values can stand only once. Numbers after ± are expanded uncertainties.
Settings: Crystal; Heating/Cooling curves

Q: For `[Ne]` [neon], which Triple point temperature is on record?
A: 24.54 ± 0.077 K and 24.69 ± 0.077 K

Source: the NIST ThermoML archive (doi:10.1016/j.jct.2011.07.011)
